Experimental findings from ChEMBL document CHEMBL4196217, “Structure-Based Drug Design and Identification of H2O-Soluble and Low Toxic Hexacyclic Camptothecin Derivatives with Improved Efficacy in Cancer and Lethal Inflammation Models in Vivo” (J Med Chem, 2018) are described below.

Each structure is given as a SMILES string. Active and inactive are the calls of the source. The calls are words filed in the database; no cut-off is given here.

For data set [1], the system named is HepG2. The experiment in a line: Antitumor activity against human HepG2 cells xenografted in Balb/C mouse assessed as inhibition of tumor growth at 2 mg/kg, iv dosed once per week for 30 days followed by 2 weeks observation. It counts as functional, organism-based.
For data set [2], the system named is Mus musculus. The experiment in a line: Toxicity in Balb/C mouse administered as daily dose for 1 week measured daily for up to 28 days. It counts as organism-based. To be noted: in vivo.
For data set [3], the system named is MGC-803. The experiment in a line: Cytotoxicity in human MGC803 cells assessed as reduction in cell viability incubated for 48 hrs by MTT assay. To be noted: MGC-803, 48 h. It counts as functional, cell-based.
Data set [4] concerns MDA-MB-231. As to the kind of experiment: Cytotoxicity in human MDA-MB-231 cells assessed as reduction in cell viability incubated for 48 hrs by MTT assay. It counts as functional, cell-based. To be noted: MDA-MB-231, 48 h.
Data set [5] addresses T1, DNA topoisomerase 1 (Homo sapiens) (UniProt P11387).
T1 sequence (whole entry): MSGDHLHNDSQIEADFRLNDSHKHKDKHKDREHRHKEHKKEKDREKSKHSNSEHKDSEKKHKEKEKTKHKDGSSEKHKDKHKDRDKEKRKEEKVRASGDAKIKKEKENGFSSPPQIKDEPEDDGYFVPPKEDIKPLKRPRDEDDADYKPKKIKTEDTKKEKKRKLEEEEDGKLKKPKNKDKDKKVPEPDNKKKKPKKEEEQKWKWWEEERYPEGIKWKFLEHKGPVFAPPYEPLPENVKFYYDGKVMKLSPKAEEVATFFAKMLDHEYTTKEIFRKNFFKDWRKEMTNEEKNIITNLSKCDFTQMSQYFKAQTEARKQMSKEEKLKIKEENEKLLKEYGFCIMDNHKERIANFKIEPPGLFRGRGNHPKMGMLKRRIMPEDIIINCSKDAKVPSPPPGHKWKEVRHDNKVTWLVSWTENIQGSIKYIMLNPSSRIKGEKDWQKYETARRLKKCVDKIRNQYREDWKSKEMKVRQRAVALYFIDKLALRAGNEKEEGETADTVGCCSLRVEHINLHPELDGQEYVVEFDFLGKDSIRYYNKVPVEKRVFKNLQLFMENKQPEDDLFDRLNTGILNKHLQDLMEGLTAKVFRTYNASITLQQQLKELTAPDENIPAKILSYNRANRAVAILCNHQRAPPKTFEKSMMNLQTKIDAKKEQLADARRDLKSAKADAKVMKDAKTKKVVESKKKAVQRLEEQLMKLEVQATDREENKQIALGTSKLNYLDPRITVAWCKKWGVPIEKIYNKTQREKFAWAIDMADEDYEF
The experiment in a line: Inhibition of human recombinant topoisomerase-1-mediated DNA cleavage in at 100 uM using supercoiled pHOT-1 DNA incubated for 30 mins by ethidium bromide staining based agarose gel elctrophoresis method.

Data set [6] deals with SGC-7901. The experiment in a line: Cytotoxicity in human SGC7901 cells assessed as reduction in cell viability incubated for 48 hrs by MTT assay. The class given is functional, cell-based. To be noted: SGC-7901, 48 h.
Data set [7] concerns SMMC-7721. As to the kind of experiment: Cytotoxicity in human SMMC7721 cells assessed as reduction in cell viability incubated for 48 hrs by MTT assay. To be noted: SMMC-7721, 48 h. The class given is functional, cell-based.
The test system of data set [8] is HepG2. As to the kind of experiment: Cytotoxicity in human HepG2 cells assessed as reduction in cell viability incubated for 48 hrs by MTT assay. The class given is functional, cell-based. To be noted: HepG2, 48 h.
Data set [9] has as its system Bel-7402. As to the kind of experiment: Cytotoxicity in human Bel7402 cells assessed as reduction in cell viability incubated for 48 hrs by MTT assay. It counts as functional, cell-based. To be noted: Bel-7402, 48 h.
Data set [10] concerns HepG2. The experiment in a line: Antitumor activity against human HepG2 cells xenografted in Balb/C mouse assessed as inhibition of tumor growth at 2 mg/kg, iv dosed once per week for 30 days followed by 2 weeks observation relative untreated control. The class given is functional. To be noted: read-out: TGI.
The subject of data set [11] is MCF7. As to the kind of experiment: cells. To be noted: Homo sapiens, MCF7, 48 h.
Description: Cytotoxicity in human MCF7 cells assessed as reduction in cell viability incubated for 48 hrs by MTT assay
Data set [12] has as its system SK-N-SH. The experiment in a line: Cytotoxicity in human SK-N-SH cells assessed as reduction in cell viability incubated for 48 hrs by MTT assay. It counts as functional, cell-based.
For data set [13], the system named is QGY-7703. The experiment in a line: Cytotoxicity in human QGY7703 cells assessed as reduction in cell viability incubated for 48 hrs by MTT assay. The class given is functional, cell-based. To be noted: QGY-7703, 48 h.
Data set [14] addresses T1, DNA topoisomerase 1 (Homo sapiens). As to the kind of experiment: Inhibition of human recombinant topoisomerase-1-mediated DNA cleavage in at 50 uM using supercoiled pHOT-1 DNA incubated for 30 mins by ethidium bromide staining based agarose gel elctrophoresis method.
The subject of data set [15] is Mus musculus. The experiment in a line: Toxicity in human HepG2 cells xenografted Balb/C mouse assessed as reduction in body weight at 2 mg/kg, iv dosed once per week for 30 days followed by 2 weeks observation. To be noted: in vivo, 336 h. The class given is organism-based.
The nature of data set [16]: Aqueous solubility of the compound. It counts as physicochemical. To be noted: aqueous; read-out: solubility.
Data set [17] concerns HepG2. As to the kind of experiment: Potency index, ratio of IC50 for topotecan to IC50 for test compound for cytotoxicity in human HepG2 cells assessed as reduction in cell viability incubated for 48 hrs by MTT assay. It counts as functional.
The test system of data set [18] is KB. As to the kind of experiment: Cytotoxicity in human KB cells assessed as reduction in cell viability incubated for 48 hrs by MTT assay. It counts as functional, cell-based.
The test system of data set [19] is A549. The experiment in a line: cells. To be noted: Homo sapiens, A549, 48 h.
Description: Cytotoxicity in human A549 cells assessed as reduction in cell viability incubated for 48 hrs by MTT assay
Data set [20] deals with MGC-803. The experiment in a line: Potency index, ratio of IC50 for topotecan to IC50 for test compound for cytotoxicity in human MGC803 cells assessed as reduction in cell viability incubated for 48 hrs by MTT assay. It counts as functional.

As to `CC[C@@]1(O)C(=O)OCc2c1cc1n(c2=O)Cc2cc3c(CN(C)C)c(O)ccc3nc2-1` [TOPOTECAN], in data set [1], the TGI result is “Active”. Further, the MTD in data set [2] stood at 2 mg/kg. The IC50 was 0.19 µM in [3]; 1.9 µM in data set [4]; over 10 µM in data set [6]; 11.6 µM in [7]; 0.237 µM in [8]; 7.12 µM in [9]. For the same compound, the IC50 in [11] came to 2.14 µM; in data set [12] it was 0.093 µM; in data set [13] it was 11.9 µM. Also, the inhibition result in data set [5] and in data set [14] was “Active” in each case. The inhibition in vivo at 2 mg/kg in [10] turned out to be 74%. Besides, the Activity result in data set [15] was “Toxic”. The solubility in data set [16] was under 1000 µg/mL.
As for `CC[C@@]1(O)C(=O)OCc2c1cc1n(c2=O)Cc2cc3c(ccc4oc(C(C)C)nc43)nc2-1`, the IC50 was 0.018 µM in data set [3]; 1.44 µM in data set [4]; 2.2 µM in data set [18]; over 10 µM in data set [6]; 10.4 µM in data set [7]; 0.016 µM in data set [8]. The IC50 in [9] was 3.48 µM; in data set [19], 1.39 µM; in data set [11], 4.64 µM; in [13], 11.6 µM. For the same compound, the “Ratio IC50” value in [17] and in data set [20] was 10 each time.
